Where two headings read alike, the source gives them in different places.
Experiments:
Drosophila OR98a = target: T1, Drosophila OR98a (Drosophila melanogaster, UniProt Q9VAZ3); assay: Calcium ion fluorescence (GCaMP6) assay, OR98a stable HEK293 cell line; assay type: cell-based
T1 construct: expressed in transfected cells
T1 sequence (Q9VAZ3 1-397): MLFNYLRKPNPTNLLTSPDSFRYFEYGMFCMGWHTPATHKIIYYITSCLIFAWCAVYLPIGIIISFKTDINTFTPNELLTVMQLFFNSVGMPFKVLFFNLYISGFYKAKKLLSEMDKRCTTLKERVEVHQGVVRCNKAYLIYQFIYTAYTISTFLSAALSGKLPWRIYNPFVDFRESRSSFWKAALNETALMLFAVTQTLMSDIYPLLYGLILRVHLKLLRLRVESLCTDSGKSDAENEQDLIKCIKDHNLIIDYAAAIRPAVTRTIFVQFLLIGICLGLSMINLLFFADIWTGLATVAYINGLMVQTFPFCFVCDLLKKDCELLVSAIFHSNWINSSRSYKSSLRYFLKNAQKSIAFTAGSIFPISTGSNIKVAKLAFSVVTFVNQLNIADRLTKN
T1 sequence (Q9VNB5 1-486 partner): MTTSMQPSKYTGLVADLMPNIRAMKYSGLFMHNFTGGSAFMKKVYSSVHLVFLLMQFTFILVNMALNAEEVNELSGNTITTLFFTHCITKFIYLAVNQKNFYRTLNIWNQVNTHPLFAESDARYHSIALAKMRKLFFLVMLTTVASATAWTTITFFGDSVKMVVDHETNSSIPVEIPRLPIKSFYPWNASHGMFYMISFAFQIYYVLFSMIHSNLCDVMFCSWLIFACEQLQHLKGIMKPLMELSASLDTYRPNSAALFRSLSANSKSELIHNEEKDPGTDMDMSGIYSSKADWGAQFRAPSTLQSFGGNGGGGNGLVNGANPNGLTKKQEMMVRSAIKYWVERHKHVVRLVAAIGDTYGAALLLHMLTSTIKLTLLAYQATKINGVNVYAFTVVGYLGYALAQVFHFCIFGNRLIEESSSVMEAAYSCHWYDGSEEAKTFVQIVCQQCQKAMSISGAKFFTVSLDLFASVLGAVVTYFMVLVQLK
Procedure, shortened: (§1)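 HEK293 lines stably expressing each Drosophila OR with GCaMP6, doxycycline-induced (1 μg/mL) 48 or 72 h. Fluorescence recorded 5 s baseline then 30 s after VOC injection at pH 7.3; ΔF=(FMAX−F0)/F0, normalized to 50 µM VUAA1 response per line, triplicate wells averaged; concentration series 0.01–100 μM.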

Drosophila OR13a = target: T2, Drosophila OR13a (Drosophila melanogaster, UniProt Q9VXL0); assay: Calcium ion fluorescence (GCaMP6) assay, OR13a stable HEK293 cell line; assay type: cell-based
T2 construct: expressed in transfected cells
T2 sequence (Q9VXL0 1-418): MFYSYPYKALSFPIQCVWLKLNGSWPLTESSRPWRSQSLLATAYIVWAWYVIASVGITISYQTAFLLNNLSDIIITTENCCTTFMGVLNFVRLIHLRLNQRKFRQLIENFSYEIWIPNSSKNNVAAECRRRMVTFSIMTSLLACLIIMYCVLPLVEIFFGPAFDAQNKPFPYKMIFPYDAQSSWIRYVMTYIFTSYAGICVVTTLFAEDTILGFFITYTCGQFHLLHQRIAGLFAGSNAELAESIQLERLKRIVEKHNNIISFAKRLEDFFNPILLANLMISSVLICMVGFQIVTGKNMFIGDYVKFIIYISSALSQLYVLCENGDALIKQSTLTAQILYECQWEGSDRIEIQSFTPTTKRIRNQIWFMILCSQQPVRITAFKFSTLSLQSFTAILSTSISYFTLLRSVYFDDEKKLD
T2 sequence (Q9VNB5 1-486 partner): T1 sequence (Q9VNB5 1-486 partner)
Procedure, shortened: as §1

[1] = HEK293, read-out: Average response
[2] = HEK293, read-out: OR98a response (VUAA1-normalized response)
[3] = concentration 1, normalized fluorescence change, values below 0.05 threshold given as 0
[4] = concentration 10, normalized fluorescence change, values below 0.05 threshold given as 0
[5] = concentration 100, normalized fluorescence change, values below 0.05 threshold given as 0
[6] = HEK293, read-out: OR13a Average response (VUAA1-normalized), 1 μM VOC, 50 μM VUAA1 = 1, responses not exceeding 0.05 considered 0
[7] = HEK293, read-out: OR13a Average response (VUAA1-normalized), 10 μM VOC, 50 μM VUAA1 = 1, responses not exceeding 0.05 considered 0
[8] = HEK293, read-out: OR13a Average response (VUAA1-normalized), 100 μM VOC, 50 μM VUAA1 = 1, responses not exceeding 0.05 considered 0
[9] = HEK293, read-out: OR13a response (VUAA1-normalized response), VOC concentration 1 μM
[10] = HEK293, read-out: OR13a response (VUAA1-normalized response), VOC concentration 10 μM
[11] = HEK293, read-out: OR13a response (VUAA1-normalized response), VOC concentration 100 μM
[12] = ligand concentration 1 (unit not given), threshold 0.05, below shown as 0
[13] = ligand concentration 10 (unit not given), threshold 0.05, below shown as 0
[14] = ligand concentration 100 (unit not given), threshold 0.05, below shown as 0
[15] = HEK293, read-out: OR98a Average response (VUAA1-normalized)
[16] = ligand concentration 1 (unit not given), 0.05 threshold, values below shown as 0
[17] = ligand concentration 10 (unit not given), 0.05 threshold, values below shown as 0
[18] = ligand concentration 100 (unit not given), 0.05 threshold, values below shown as 0

Structure (SMILES)	activation at 1 µM (Drosophila OR98a; [1])	activation at 10 µM (Drosophila OR98a; [1])	activation at 100 µM (Drosophila OR98a; [1])	activation at 1 µM (Drosophila OR98a; [2])	activation at 10 µM (Drosophila OR98a; [2])	activation at 100 µM (Drosophila OR98a; [2])	DF norm AVERAGE OR98a (Drosophila OR98a; [3])	DF norm AVERAGE OR98a (Drosophila OR98a; [4])	DF norm AVERAGE OR98a (Drosophila OR98a; [5])	activation at 1 µM (Drosophila OR13a; [6])	activation at 10 µM (Drosophila OR13a; [7])	activation at 100 µM (Drosophila OR13a; [8])	activation at 1 µM (Drosophila OR13a; [9])	activation at 10 µM (Drosophila OR13a; [10])	activation at 100 µM (Drosophila OR13a; [11])	DF norm AVERAGE OR13a (Drosophila OR13a; [3])	DF norm AVERAGE OR13a (Drosophila OR13a; [4])	DF norm AVERAGE OR13a (Drosophila OR13a; [5])	DF norm AVERAGE OR98a (Drosophila OR98a; [12])	DF norm AVERAGE OR98a (Drosophila OR98a; [13])	also measured
COc1cccc(OC)c1 [1,3-dimethoxy benzene]	0%	1.66%	3.31%	0%	0%	0%	0	0	0	0%	0%	3.71%	0%	0%	0%	0	0	0			
CC(=O)OCC(C)C [isobutyl acetate]	1.85%	0%	6.56%	0%	0%	6.56%				2%	7%	3.7%	0%	7%	0%				0	0	DF norm AVERAGE OR98a (Drosophila OR98a; [14]): 0.0656; DF norm AVERAGE OR13a (Drosophila OR13a; [12]): 0; DF norm AVERAGE OR13a (Drosophila OR13a; [13]): 0.06695; DF norm AVERAGE OR13a (Drosophila OR13a; [14]): 0
CCCCCC(C)O (stereo not drawn) [2-heptanol]	3.25%	3.67%	16%	0%	0%	16%	0	0	0.1574	4%	0%	8%	0%	0%	8%	0	0	0.07697			activation at 1 µM (Drosophila OR98a; [15]): 3%; activation at 10 µM (Drosophila OR98a; [15]): 4%; activation at 100 µM (Drosophila OR98a; [15]): 16%
C=C1CC/C=C(\C)CC[C@@H]2[C@@H]1CC2(C)C [(-)-trans-caryophyllene]	7%	6%	6%	7%	6%	6%	0.06975	0.06201	0.05748	0%	11%	10%	0%	11%	10%	0	0.1145	0.105			
Cc1cccc(C)c1 [m-xylene]	0%	0%	2.54%							0%	0%	4%							0	0	OR98a response (VUAA1-normalized) at 1 μM (Drosophila OR98a; OR98a cell line, VOC concentration 1 μM): 0.00; OR98a response (VUAA1-normalized) at 10 μM (Drosophila OR98a; OR98a cell line, VOC concentration 10 μM): 0.00; OR98a response (VUAA1-normalized) at 100 μM (Drosophila OR98a; OR98a cell line, VOC concentration 100 μM): 0.00; DF norm AVERAGE OR98a (Drosophila OR98a; [14]): 0; OR13a response (VUAA1-normalized) at 1 μM (Drosophila OR13a; OR13a cell line, VOC concentration 1 μM): 0.00; OR13a response (VUAA1-normalized) at 10 μM (Drosophila OR13a; OR13a cell line, VOC concentration 10 μM): 0.00; OR13a response (VUAA1-normalized) at 100 μM (Drosophila OR13a; OR13a cell line, VOC concentration 100 μM): 0.00; DF norm AVERAGE OR13a (Drosophila OR13a; [12]): 0; DF norm AVERAGE OR13a (Drosophila OR13a; [13]): 0; DF norm AVERAGE OR13a (Drosophila OR13a; [14]): 0
CC/C=C\CCOC(C)=O [z3-hexenyl acetate]	0%	1.43%	10%							0%	2.61%	9%									activation at 1 µM (Drosophila OR98a; [15]): 0%; activation at 10 µM (Drosophila OR98a; [15]): 1%; activation at 100 µM (Drosophila OR98a; [15]): 10%; DF norm AVERAGE OR98a (Drosophila OR98a; [16]): 0; DF norm AVERAGE OR98a (Drosophila OR98a; [17]): 0; DF norm AVERAGE OR98a (Drosophila OR98a; [18]): 0.1048; DF norm AVERAGE OR13a (Drosophila OR13a; [16]): 0; DF norm AVERAGE OR13a (Drosophila OR13a; [17]): 0; DF norm AVERAGE OR13a (Drosophila OR13a; [18]): 0.09283
CC1=CC[C@@H](C(C)(C)O)CC1 [alpha-terpineol]	0%	1.81%	6.45%	0%	0%	6.45%				3.36%	0%	0%	0%	0%	0%				0	0	DF norm AVERAGE OR98a (Drosophila OR98a; [14]): 0.06455; DF norm AVERAGE OR13a (Drosophila OR13a; [12]): 0; DF norm AVERAGE OR13a (Drosophila OR13a; [13]): 0; DF norm AVERAGE OR13a (Drosophila OR13a; [14]): 0

— PMC10709440, “High-throughput ligand profile characterization in novel cell lines expressing seven heterologous insect olfactory receptors for the detection of volatile plant biomarkers” (Scientific Reports, 2023)
